How the values were obtained:
[1] = biological target: T1, μ-opioid receptor (Homo sapiens, UniProt P35372); assay: biochemical; parameters: purchased Perkin Elmer, Shelton, Conn; host or cells: HEK-293 or CHO; conditions: HEK-293 or CHO cells; for EC50: read-out: GTPγS μ EC50; for Emax: relative to DAMGO, read-out: GTPγS μ Emax
[2] = biological target: T1, μ-opioid receptor; assay: cell-based; parameters: purchased Perkin Elmer, Shelton, Conn; conditions: U2OS cells; for EC50: read-out: β-Arr2 μ EC50; for Emax: read-out: β-Arr2 μ Emax
[3] = biological target: T2, ORL-1 receptor (Homo sapiens, UniProt P41146); assay: ORL-1 receptor radioligand binding assay ([3H]-nociceptin); conditions: HEK-293 or CHO cells; read-out: Ki (nM) Opioid Receptor ORL-1
T2 construct: host or cells: HEK-293
T2 sequence (P41146 whole entry): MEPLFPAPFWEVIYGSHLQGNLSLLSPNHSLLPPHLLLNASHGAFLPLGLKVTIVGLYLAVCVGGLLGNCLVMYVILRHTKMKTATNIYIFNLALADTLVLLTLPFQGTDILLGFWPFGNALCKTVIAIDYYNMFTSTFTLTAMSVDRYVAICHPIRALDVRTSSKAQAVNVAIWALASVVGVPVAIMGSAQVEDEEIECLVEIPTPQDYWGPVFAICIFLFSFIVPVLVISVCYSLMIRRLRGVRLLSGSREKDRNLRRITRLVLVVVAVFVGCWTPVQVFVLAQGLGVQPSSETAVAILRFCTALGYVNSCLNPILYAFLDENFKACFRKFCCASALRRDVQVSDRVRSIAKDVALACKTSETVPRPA
Experimental: ORL-1 Receptor Binding Assay Procedure: Membranes from recombinant HEK-293 cells expressing the human opioid receptor-like receptor (ORL-1) (Perkin Elmer, Shelton, Conn.) were prepared by lysing cells in ice-cold hypotonic buffer (2.5 mM MgCl2, 50 mM HEPES, pH 7.4) (10 ml/10 cm dish) followed by homogenization with a tissue grinder/Teflon pestle. Membranes were collected by centrifugation at 30,000×g for 15 min at 4° C. and pellets resuspended in hypotonic buffer to a final concentration of 1-3 mg/ml. Protein concentrations were determined using the BioRad protein assay reagent with bovine serum albumen as standard. Aliquots of the ORL-1 receptor membranes were stored at −80° C.
Radioligand binding assays (screening and dose-displacement) used 0.1 nM [^3H]-nociceptin (Perkin Elmer, Shelton, Conn.; 87.7 Ci/mmole) with 12 μg membrane protein in a final volume of 500 μl binding buffer (10 mM MgCl2, 1 mM EDTA, 5% DMSO, 50 mM HEPES, pH 7.4). Non-specific binding was determined in the presence of […] unlabeled nociceptin (American Peptide Company). All reactions were performed in 96-deep well polypropylene plates for 1 h at room temperature. […] The data from screening and dose-displacement experiments were analyzed using Microsoft Excel and the curve fitting functions in GraphPad PRISM™, v. 3.0 or higher, respectively, or an in-house function for one-site competition curve-fitting.

[4] = biological target: T3, κ-opioid receptor (Homo sapiens, UniProt P41145); assay: κ-opioid receptor β-Arr2 activity response, U2OS cells; type: cell-based; parameters: expressed in transfected cells; host or cells: U-2 OS; conditions: U2OS cells
T3 sequence (P41145 whole entry): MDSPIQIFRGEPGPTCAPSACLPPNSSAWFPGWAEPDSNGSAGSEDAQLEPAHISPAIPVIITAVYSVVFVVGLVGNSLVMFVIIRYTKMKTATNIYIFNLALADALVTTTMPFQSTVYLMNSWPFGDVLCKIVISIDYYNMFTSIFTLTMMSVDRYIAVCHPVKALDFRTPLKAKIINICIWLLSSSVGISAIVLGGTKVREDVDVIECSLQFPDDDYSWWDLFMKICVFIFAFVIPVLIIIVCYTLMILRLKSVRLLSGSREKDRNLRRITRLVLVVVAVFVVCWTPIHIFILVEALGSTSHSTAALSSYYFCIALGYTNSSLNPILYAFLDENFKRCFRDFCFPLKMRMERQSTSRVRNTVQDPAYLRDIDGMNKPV

[5] = biological target: T1, μ-opioid receptor; assay: μ-opioid receptor GTPγS functional assay, U2OS cells
[6] = biological target: T1, μ-opioid receptor; assay: μ-opioid receptor radioligand binding assay ([3H]-diprenorphine); parameters: purchased Perkin Elmer, Shelton, Conn; host or cells: HEK-293 or CHO; conditions: HEK-293 or CHO cells; read-out: Ki (nM) Opioid Receptor μ
Experimental: μ-opioid Receptor Binding Assay Procedures: Radioligand dose-displacement binding assays for μ-opioid receptors used 0.3 nM [^3H]-diprenorphine (Perkin Elmer, Shelton, Conn.), with […] membrane protein/well in a final volume of 500 μl binding buffer (10 mM MgCl2, 1 mM EDTA, 5% DMSO, 50 mM HEPES, pH 7.4). Reactions were carried out in the absence or presence of increasing concentrations of unlabeled naloxone. All reactions were conducted in 96-deep well polypropylene plates for 2 hr at room temperature. […] The data were analyzed using the one-site competition curve fitting functions in GraphPad PRISM™ v. 3.0 or higher (San Diego, Calif.), or an in-house function for one-site competition curve-fitting.

[7] = biological target: T3, κ-opioid receptor; assay: κ-opioid receptor GTPγS functional assay, U2OS cells; type: biochemical; parameters: expressed in transfected cells; host or cells: U-2 OS; conditions: U2OS cells
Experimental: (§1) Plates were incubated for 30 min at a temperature of about 25° C. with shaking.

[8] = biological target: T3, κ-opioid receptor; assay: κ-opioid receptor [35S]GTPγS functional assay, HEK-293 or CHO cells; type: biochemical; parameters: expressed in transfected cells; host or cells: HEK-293; conditions: HEK-293 or CHO cells
Experimental: as §1

[9] = biological target: T3, κ-opioid receptor; assay: κ-opioid receptor radioligand binding assay ([3H]-U69,593); parameters: expressed in transfected cells; host or cells: HEK-293; conditions: HEK-293 or CHO cells; read-out: Ki (nM) Opioid Receptor κ
Experimental: κ-opioid Receptor Binding Assay Procedures: Membranes from recombinant HEK-293 cells expressing the human κ opioid receptor (κ) (cloned in house) were prepared by lysing cells in ice cold hypotonic buffer (2.5 mM MgCl2, 50 mM HEPES, pH 7.4) (10 mL/10 cm dish) followed by homogenization with a tissue grinder/Teflon pestle. Membranes were collected by centrifugation at 30,000×g for 15 min at 4° C. and pellets were resuspended in hypotonic buffer to a final concentration of 1-3 mg/mL. Protein concentrations were determined using the BioRad protein assay reagent with bovine serum albumen as standard. Aliquots of κ receptor membranes were stored at −80° C.
Radioligand dose displacement assays used 0.4 nM [^3H]-U69,593 (GE Healthcare, Piscataway, N.J.; 40 Ci/mmole) with 15 μg membrane protein (recombinant κ opioid receptor expressed in HEK 293 cells; in-house prep) in a final volume of 200 μl binding buffer (5% DMSO, 50 mM Trizma base, pH 7.4). Non-specific binding was determined in the presence of 10 μM unlabeled naloxone or U69,593. All reactions were performed in 96-well polypropylene plates for 1 hr at a temperature of about 25° C.

T1 sequence (P35372 whole entry, species assumed): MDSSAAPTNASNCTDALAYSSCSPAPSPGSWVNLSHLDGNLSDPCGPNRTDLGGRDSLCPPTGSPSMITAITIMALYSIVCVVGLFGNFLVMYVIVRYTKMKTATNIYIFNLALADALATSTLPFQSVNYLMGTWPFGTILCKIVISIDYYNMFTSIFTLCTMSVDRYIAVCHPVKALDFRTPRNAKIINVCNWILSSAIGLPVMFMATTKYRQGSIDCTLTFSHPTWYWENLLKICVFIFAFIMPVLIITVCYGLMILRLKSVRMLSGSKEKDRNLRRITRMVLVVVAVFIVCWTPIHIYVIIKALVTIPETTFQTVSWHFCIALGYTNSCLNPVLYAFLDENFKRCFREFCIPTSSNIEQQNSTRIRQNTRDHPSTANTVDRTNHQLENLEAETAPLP

With `C[C@H]1[C@H]2Cc3ccc(O)cc3C1(CCN[C@H]1C[C@H]3CCC[C@@H](C1)N3CC[C@@H]1CC[C@H]3C[C@@H]1C3(C)C)CCN2C` [Compound 64, (2R,6R,11R)-6-(2-(((1R,3S,5S)-9-(2-((1S,2S,5S)-6,6-dimethylbicyclo-[3.1.1]heptan-2-yl)ethyl)-9-azabicyclo-[3.3.1]nonan-3-yl)amino)ethyl)-3,11-dimethyl-1,2,3,4,5,6-hexahydro-2,6-methanobenzo[d]azocin-8-ol] the EC50 [1] was 19.6 ± 5.19 nM, the Emax [1] was 43.5 ± 2.96% and the EC50 [2] was 7450 ± 929 nM. For the same compound, the Emax [2] was 51.8 ± 7.76% and the Ki [3] was 563 ± 97.5 nM.

For `C[C@H]1[C@H]2Cc3ccc(O)cc3C1(CCN[C@H]1C[C@H]3CCC[C@@H](C1)N3[C@@H]1C[C@@H]3CCCC[C@@H](C3)C1)CCN2C` [Compound 63, (2R,6R,11R)-6-(2-(((1R,3R,5S)-9-((1R,6S,8r)-bicyclo[4.3.1]decan-8-yl)-9-azabicyclo[3.3.1]nonan-3-yl)amino)-ethyl)-3,11-dimethyl-1,2,3,4,5,6-hexahydro-2,6-methanobenzo[d]azocin-8-ol], the EC50 [1] was 2.43 ± 0.67 nM, the Emax [1] was 74.7 ± 2.4% and the EC50 [2] was 1.23 ± 0.31 nM. For the same compound, the Emax [2] was 21.8 ± 1.31% and the Ki [3] was 125 ± 24.2 nM.

With `CC(C)C[C@H](NCCCC[C@]12CCN(CC3CC3)[C@H](Cc3ccc(O)cc31)[C@@H]2C)C(=O)O` [Compound 24, (4-((2R,6R,11R)-3-(cyclopropyl-methyl)-8-hydroxy-11-methyl-2,3,4,5-tetrahydro-2,6-methanobenzo[d]azocin-6(1H)-yl)butyl)-L-leucine] the Emax [4] was 54 ± 4.06%, the EC50 ([4]; read-out: β-Arr2 κ EC50) was 3.56 ± 0.91 nM and the EC50 [5] was 1.94 ± 0.28 nM. It also gave an Emax ([5]; read-out: GTPγS μ Emax) of 77.3 ± 3.18%, an EC50 [1] of 5.46 ± 0.51 nM and an Emax [1] of 19.5 ± 2.26%. For the same compound, the Ki [6] was 2.89 ± 0.63 nM, the Emax [7] was 98.3 ± 4.33% and the EC50 ([7]; read-out: GTPγS κ EC50) was 0.51 ± 0.072 nM. It also gave an EC50 ([8]; read-out: GTPγS κ EC50) of 9.32 ± 2.97 nM, an Emax ([8]; relative to U69,593) of 102 ± 5.57% and an Emax [2] of -0.4 ± 0.6%. The Ki [9] was 0.55 ± 0.11 nM.
